Source: patent US9592272B2, “Treatment of osteoarthritis with incretin hormones or analogues thereof” (UNIVERSITE PIERRE ET MARIE CURIE (PARIS 6), priority 2012, dated 2017)

Experiments:
[1] = clinical trials (Krzeski et al., 2007); cited from earlier work
[2] = tested on: MMP-3, MMP-9 and MMP-13 expression in osteoblasts; test: Expression of MMP-3, MMP-9 and MMP-13 in primary osteoblasts in response to IL-1β (real-time quantitative RT-PCR); type: cell-based, murine; conditions: peptide 10 nM, IL-1β 0.1 or 1 ng/ml, 24 h; for overexpression of the prodegradative enzymes MMP-3 and MMP-13 in the osteoblasts in response to an IL-1β treatment: FIGS. 2A, B and C
Description: The murine osteoblasts were obtained after enzymatic digestion of the skulls of 4- to 6-day-old mice. The cells were amplified for 3 weeks, in the presence of ascorbic acid and β-glycerophosphate. The osteoblasts at the end of culture formed a three-dimensional membrane (Sanchez et al., 2009).
(§1) The cultures were deprived in a serum-free culture medium for 24 h before treatment.
(§2) The RNAs were extracted using the RNeasy Mini kit (Qiagen) and then reverse-transcribed using the Omniscript kit (Qiagen). The expression level of the genes of interest was quantified by real-time PCR (Light Cycler LC480), relative to the HPRT reference gene, using the following primers: […]

[3] = tested on: MMP-3, MMP-9 and MMP-13 expression in chondrocytes; test: Expression of MMP-3, MMP-9 and MMP-13 in primary chondrocytes in response to IL-1β (real-time quantitative RT-PCR); type: cell-based, murine; conditions: peptide 10 nM; IL-1β 0.1 or 1 ng/ml, 24 h; FIG. 1
Description: (§3) The murine chondrocytes were obtained after enzymatic digestion of femoral heads and knees of 4- to 6-day-old mice. The cells were amplified in a monolayer for 1 week (Gosset et al., 2008).
as §1, §2

[4] = tested on: prostaglandin E2 (PGE2) release by chondrocytes; test: Prostaglandin E2 release by chondrocytes in response to IL-1β (EIA on culture supernatants); type: cell-based, murine
Description: as §3, §1
The amount of PGE2 produced by the cells was measured by means of the prostaglandin E2 monoclonal EIA kit (Cayman) using the culture supernatants.

[5] = in vivo, iv; cited from earlier work

| Compound | toxicity revealed during clinical trials [1] | overexpression of the prodegradative enzymes MMP-3 and MMP-13 in the osteoblasts in response to an IL-1β treatment [2] | overexpression of the prodegradative enzymes MMP-3, MMP-9 and/or MMP-13 in the chondrocytes in response to an IL-1β treatment [3] | overexpression of MMP-9 in the osteoblasts in response to an IL-1β treatment ([2]; FIG. 2D) | release of prostaglandin E2 (PGE2) by the chondrocytes in response to an IL-1β treatment ([4]; peptide 10 nM, IL-1β 1 ng/ml, 24 h, FIG. 3) | induction of PGE2 by peptide alone, chondrocytes ([4]; peptide alone, without IL-1β) | half-life time [5] |
| --- | --- | --- | --- | --- | --- | --- | --- |
| COc1ccc(C(=O)Nc2ccc(S(=O)(=O)NC(CC#CCN3CCOCC3)C(=O)O)cc2)cc1 (centres unmarked) [PG-116800] | musculoskeletal toxicity | – | – | – | – | – | – |
| GLP-1 (7-37) | – | inhibits | inhibits | – | – | – | – |
| GLP-1 (7-36) amide | – | inhibits | inhibits | inhibits | inhibits | does not induce | – |
| GIP (1-42) | – | inhibits | inhibits | – | – | – | approximately 2 minutes |
